{"source": "ChEMBL document CHEMBL5303764", "about": "“Data for DCP probe BI-3812” (2023)", "key": {"[1]": {"molecular_target": "5-hydroxytryptamine receptor 1A (Homo sapiens) (UniProt P08908)", "test": "5HT1A/H Eurofins SafetyScreen44 (BI)", "settings": "Compound concentration 10.0 uM"}, "[2]": {"molecular_target": "Neuronal acetylcholine receptor; alpha4/beta2 (Homo sapiens) (UniProt P17787+P43681)", "test": "N_NEURO_A4B2 Eurofins SafetyScreen44 (BI)", "assay_type": "protein-complex assay", "settings": "filed as agonist, Compound concentration 10.0 uM"}, "[3]": {"molecular_target": "Delta-type opioid receptor (Homo sapiens) (UniProt P41143)", "sequence (P41143 whole entry)": "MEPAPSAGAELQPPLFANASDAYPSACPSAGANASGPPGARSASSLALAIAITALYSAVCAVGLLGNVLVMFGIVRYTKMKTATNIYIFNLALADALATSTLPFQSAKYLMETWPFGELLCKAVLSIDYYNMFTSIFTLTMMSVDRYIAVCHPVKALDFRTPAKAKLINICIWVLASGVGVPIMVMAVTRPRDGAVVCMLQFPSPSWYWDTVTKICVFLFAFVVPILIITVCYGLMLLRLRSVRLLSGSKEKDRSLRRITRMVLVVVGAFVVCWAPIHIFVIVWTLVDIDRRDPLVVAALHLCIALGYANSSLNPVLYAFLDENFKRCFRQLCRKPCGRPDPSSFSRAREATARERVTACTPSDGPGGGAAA", "settings": "Compound concentration 10.0 uM"}, "[4]": {"molecular_target": "Cyclin-dependent kinase 2/cyclin A (Homo sapiens) (UniProt P24941+P20248+P78396)", "test": "CDK2/CYCLINA Invitrogen Lab (UK) kinase screen (BI)", "assay_type": "protein-complex assay", "settings": "Compound concentration 1.0 uM"}, "[5]": {"molecular_target": "D(2) dopamine receptor (Homo sapiens) (UniProt P14416)", "sequence (P14416 whole entry)": "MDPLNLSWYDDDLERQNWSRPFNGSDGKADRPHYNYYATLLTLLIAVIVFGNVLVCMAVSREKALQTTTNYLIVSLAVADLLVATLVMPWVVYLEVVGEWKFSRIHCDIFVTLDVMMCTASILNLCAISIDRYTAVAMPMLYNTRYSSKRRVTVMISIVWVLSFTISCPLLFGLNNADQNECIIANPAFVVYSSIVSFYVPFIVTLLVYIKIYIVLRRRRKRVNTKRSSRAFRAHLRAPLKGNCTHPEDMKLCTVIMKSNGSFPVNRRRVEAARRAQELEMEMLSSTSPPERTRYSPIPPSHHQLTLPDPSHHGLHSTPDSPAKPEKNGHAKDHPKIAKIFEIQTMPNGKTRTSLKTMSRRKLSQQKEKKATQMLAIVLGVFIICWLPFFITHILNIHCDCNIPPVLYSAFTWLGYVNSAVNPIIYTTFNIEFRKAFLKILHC", "settings": "Compound concentration 10.0 uM"}, "[6]": {"molecular_target": "Serine/threonine-protein kinase Chk1 (Homo sapiens) (UniProt O14757)", "test": "CHEK1 Invitrogen Lab (UK) kinase screen (BI)", "settings": "Compound concentration 1.0 uM"}, "[7]": {"molecular_target": "T1, Muscarinic acetylcholine receptor M3 (Homo sapiens, UniProt P20309)", "settings": "Compound concentration 10.0 uM"}, "[8]": {"molecular_target": "Dual specificity mitogen-activated protein kinase kinase 1 (Homo sapiens) (UniProt Q02750)", "test": "MAP2K1 Invitrogen Lab (UK) kinase screen (BI)", "settings": "Compound concentration 1.0 uM"}, "[9]": {"molecular_target": "Mitogen-activated protein kinase 8 (Homo sapiens) (UniProt P45983)", "test": "MAPK8 Invitrogen Lab (UK) kinase screen (BI)", "settings": "Compound concentration 1.0 uM"}, "[10]": {"molecular_target": "Sodium-dependent noradrenaline transporter (Homo sapiens) (UniProt P23975)", "sequence (P23975 whole entry)": "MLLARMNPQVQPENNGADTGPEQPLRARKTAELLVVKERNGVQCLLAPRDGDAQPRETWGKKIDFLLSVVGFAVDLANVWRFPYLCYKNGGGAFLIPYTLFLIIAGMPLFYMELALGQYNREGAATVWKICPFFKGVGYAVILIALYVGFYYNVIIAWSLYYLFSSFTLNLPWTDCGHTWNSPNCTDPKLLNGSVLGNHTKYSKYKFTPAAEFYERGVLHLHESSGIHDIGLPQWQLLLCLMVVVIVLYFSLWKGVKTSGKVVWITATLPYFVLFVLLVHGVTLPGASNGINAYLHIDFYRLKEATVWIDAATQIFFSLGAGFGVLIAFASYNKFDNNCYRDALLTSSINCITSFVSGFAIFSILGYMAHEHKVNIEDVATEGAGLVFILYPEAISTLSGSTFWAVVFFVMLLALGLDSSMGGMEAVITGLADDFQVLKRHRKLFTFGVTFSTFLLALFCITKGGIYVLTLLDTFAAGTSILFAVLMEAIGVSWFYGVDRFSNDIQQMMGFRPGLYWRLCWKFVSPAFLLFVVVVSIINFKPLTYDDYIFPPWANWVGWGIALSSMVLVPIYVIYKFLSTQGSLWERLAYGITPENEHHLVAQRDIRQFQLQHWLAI", "settings": "Compound concentration 10.0 uM"}, "[11]": {"molecular_target": "Muscarinic acetylcholine receptor M1 (Homo sapiens) (UniProt P11229)", "test": "M1/H Eurofins SafetyScreen44 (BI)", "settings": "Compound concentration 10.0 uM"}, "[12]": {"molecular_target": "Muscarinic acetylcholine receptor M4 (Homo sapiens) (UniProt P08173)", "sequence (P08173 whole entry)": "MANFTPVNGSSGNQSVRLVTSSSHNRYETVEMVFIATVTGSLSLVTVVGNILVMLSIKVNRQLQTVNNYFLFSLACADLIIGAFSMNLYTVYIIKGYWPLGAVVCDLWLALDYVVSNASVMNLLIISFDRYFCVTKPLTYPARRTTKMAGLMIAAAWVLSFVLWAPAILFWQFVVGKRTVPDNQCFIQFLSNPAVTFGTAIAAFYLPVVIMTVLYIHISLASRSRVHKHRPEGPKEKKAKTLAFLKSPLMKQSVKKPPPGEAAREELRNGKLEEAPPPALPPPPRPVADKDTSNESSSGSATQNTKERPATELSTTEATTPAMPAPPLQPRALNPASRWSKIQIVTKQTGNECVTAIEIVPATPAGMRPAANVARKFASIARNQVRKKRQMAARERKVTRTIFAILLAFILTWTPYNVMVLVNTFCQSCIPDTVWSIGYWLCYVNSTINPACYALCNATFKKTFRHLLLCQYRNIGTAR", "settings": "Compound concentration 10.0 uM"}, "[13]": {"molecular_target": "Histamine H3 receptor (Homo sapiens) (UniProt Q9Y5N1)", "sequence (Q9Y5N1 whole entry)": "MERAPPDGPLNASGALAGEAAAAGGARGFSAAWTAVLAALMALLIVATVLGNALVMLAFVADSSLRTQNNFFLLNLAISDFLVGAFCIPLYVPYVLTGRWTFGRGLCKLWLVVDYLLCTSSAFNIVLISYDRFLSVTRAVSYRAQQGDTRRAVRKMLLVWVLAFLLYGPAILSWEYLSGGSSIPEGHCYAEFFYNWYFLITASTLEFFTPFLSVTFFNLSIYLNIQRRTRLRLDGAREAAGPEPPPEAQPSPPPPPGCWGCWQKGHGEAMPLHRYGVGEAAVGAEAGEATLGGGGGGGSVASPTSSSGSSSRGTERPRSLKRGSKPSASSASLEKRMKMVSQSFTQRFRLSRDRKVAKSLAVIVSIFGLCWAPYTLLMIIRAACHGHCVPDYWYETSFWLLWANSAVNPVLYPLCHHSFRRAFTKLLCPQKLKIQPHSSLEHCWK", "settings": "Compound concentration 10.0 uM"}, "[14]": {"molecular_target": "GABA-A receptor; anion channel (Rattus norvegicus) (UniProt O09028+P15431+P18506+P18508+P19969+P20236+P23574+P23576+P28471+P28473+P30191+P62813+P63079+P63138+Q91ZM7+Q9ES14)", "settings": "Compound concentration 10.0 uM"}, "[15]": {"molecular_target": "Casein kinase I isoform alpha (Homo sapiens) (UniProt P48729)", "test": "CSNK1A1 Invitrogen Lab (UK) kinase screen (BI)", "settings": "Compound concentration 1.0 uM"}, "[16]": {"molecular_target": "Platelet-derived growth factor receptor alpha (Homo sapiens) (UniProt P16234)", "test": "PDGFRA Invitrogen Lab (UK) kinase screen (BI)", "settings": "Compound concentration 1.0 uM"}, "[17]": {"molecular_target": "5-hydroxytryptamine receptor 3A (Homo sapiens) (UniProt P46098)", "settings": "Compound concentration 10.0 uM"}, "[18]": {"molecular_target": "3-phosphoinositide-dependent protein kinase 1 (Homo sapiens) (UniProt O15530)", "test": "PDK1 Invitrogen Lab (UK) kinase screen (BI)", "settings": "Compound concentration 1.0 uM"}, "[19]": {"molecular_target": "Histamine H4 receptor (Homo sapiens) (UniProt Q9H3N8)", "sequence (Q9H3N8 whole entry)": "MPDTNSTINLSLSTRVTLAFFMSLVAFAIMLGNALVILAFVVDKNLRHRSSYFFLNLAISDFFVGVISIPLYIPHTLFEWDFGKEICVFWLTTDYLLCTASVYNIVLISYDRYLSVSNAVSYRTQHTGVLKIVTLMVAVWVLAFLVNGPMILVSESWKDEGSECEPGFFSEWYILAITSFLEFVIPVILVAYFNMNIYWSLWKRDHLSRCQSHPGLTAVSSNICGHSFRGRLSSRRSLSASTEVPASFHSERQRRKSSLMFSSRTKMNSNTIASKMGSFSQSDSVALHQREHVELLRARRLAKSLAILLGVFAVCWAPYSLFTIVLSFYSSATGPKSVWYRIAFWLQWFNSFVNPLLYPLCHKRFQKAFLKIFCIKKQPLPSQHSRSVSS", "settings": "Compound concentration 10.0 uM"}, "[20]": {"molecular_target": "Alpha-2A adrenergic receptor (Homo sapiens) (UniProt P08913)", "test": "ALPHA2A/HU Eurofins SafetyScreen44 (BI)", "settings": "Compound concentration 10.0 uM"}, "[21]": {"molecular_target": "Histamine H1 receptor (Homo sapiens) (UniProt P35367)", "sequence (P35367 whole entry)": "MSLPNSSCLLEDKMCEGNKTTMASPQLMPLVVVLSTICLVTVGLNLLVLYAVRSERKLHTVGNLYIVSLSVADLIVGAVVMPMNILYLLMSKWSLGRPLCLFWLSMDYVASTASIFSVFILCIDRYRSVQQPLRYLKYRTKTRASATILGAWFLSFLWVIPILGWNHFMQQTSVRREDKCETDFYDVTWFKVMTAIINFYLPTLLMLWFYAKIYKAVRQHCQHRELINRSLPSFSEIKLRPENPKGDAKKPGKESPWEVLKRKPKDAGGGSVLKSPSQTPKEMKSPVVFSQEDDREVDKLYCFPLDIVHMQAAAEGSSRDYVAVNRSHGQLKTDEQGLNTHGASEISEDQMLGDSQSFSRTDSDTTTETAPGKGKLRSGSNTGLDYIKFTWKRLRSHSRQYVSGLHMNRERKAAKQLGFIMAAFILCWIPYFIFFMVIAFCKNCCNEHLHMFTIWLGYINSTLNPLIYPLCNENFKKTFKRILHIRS", "settings": "Compound concentration 10.0 uM"}, "[22]": {"molecular_target": "Mu-type opioid receptor (Homo sapiens) (UniProt P35372)", "sequence (P35372 whole entry)": "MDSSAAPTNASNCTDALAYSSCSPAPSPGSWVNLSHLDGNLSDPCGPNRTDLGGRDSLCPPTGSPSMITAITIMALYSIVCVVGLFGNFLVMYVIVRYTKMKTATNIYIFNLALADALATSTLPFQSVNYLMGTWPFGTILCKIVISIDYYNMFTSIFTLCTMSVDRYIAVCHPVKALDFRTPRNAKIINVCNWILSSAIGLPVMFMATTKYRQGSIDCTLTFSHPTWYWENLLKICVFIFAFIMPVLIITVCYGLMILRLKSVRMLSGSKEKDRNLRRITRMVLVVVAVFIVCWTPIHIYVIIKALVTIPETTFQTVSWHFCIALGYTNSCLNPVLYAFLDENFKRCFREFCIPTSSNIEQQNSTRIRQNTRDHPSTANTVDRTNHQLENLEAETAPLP", "settings": "Compound concentration 10.0 uM"}, "[23]": {"molecular_target": "B-cell lymphoma 6 protein (Homo sapiens, UniProt P41182)", "test": "SPR (BCL6), Ontario institute for cancer research"}, "hERG (KCNH2)": {"molecular_target": "hERG (KCNH2) (Homo sapiens, UniProt Q12809)", "test": "HERG_DOFETILIDE Eurofins SafetyScreen44 (BI)", "settings": "probe [3H]dofetilide, compound concentration 10 uM, read-out: % Ctrl"}, "[24]": {"molecular_target": "RAF proto-oncogene serine/threonine-protein kinase (Homo sapiens) (UniProt P04049)", "test": "RAF1 Invitrogen Lab (UK) kinase screen (BI)", "settings": "Compound concentration 1.0 uM"}, "[25]": {"molecular_target": "Dual specificity mitogen-activated protein kinase kinase 6 (Homo sapiens) (UniProt P52564)", "test": "MAP2K6 Invitrogen Lab (UK) kinase screen (BI)", "settings": "Compound concentration 1.0 uM"}, "[26]": {"molecular_target": "Beta-2 adrenergic receptor (Homo sapiens) (UniProt P07550)", "test": "BETA2/HUM Eurofins SafetyScreen44 (BI)", "settings": "filed as antagonist, Compound concentration 10.0 uM"}, "[27]": {"molecular_target": "Cannabinoid receptor 2 (Homo sapiens) (UniProt P34972)", "test": "CB2/PERIPH/H Eurofins SafetyScreen44 (BI)", "settings": "Compound concentration 10.0 uM"}, "Rattus norvegicus": {"organism": "Rattus norvegicus", "settings": "Compound concentration 10.0 uM"}, "[28]": {"molecular_target": "Insulin receptor (Homo sapiens) (UniProt P06213)", "test": "INSR Invitrogen Lab (UK) kinase screen (BI)", "settings": "Compound concentration 1.0 uM"}, "[29]": {"molecular_target": "Focal adhesion kinase 1 (Homo sapiens) (UniProt Q05397)", "test": "PTK2 Invitrogen Lab (UK) kinase screen (BI)", "settings": "Compound concentration 1.0 uM"}, "[30]": {"molecular_target": "Vascular endothelial growth factor receptor 2 (Homo sapiens) (UniProt P35968)", "test": "KDR Invitrogen Lab (UK) kinase screen (BI)", "settings": "Compound concentration 1.0 uM"}, "[31]": {"molecular_target": "Alpha-2C adrenergic receptor (Homo sapiens) (UniProt P18825)", "sequence (P18825 whole entry)": "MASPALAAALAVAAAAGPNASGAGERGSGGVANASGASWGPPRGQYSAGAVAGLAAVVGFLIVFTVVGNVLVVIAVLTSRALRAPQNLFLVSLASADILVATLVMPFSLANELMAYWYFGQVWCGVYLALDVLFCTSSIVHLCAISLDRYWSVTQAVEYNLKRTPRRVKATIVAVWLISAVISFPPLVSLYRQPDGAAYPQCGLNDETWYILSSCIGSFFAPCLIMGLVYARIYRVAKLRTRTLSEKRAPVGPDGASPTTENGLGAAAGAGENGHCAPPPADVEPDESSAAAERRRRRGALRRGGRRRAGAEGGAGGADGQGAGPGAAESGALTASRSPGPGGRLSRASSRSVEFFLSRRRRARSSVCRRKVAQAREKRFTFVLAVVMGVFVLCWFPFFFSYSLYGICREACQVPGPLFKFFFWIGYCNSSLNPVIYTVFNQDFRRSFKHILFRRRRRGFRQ", "settings": "Compound concentration 10.0 uM"}, "[32]": {"molecular_target": "Sigma non-opioid intracellular receptor 1 (Homo sapiens) (UniProt Q99720)", "sequence (Q99720 whole entry)": "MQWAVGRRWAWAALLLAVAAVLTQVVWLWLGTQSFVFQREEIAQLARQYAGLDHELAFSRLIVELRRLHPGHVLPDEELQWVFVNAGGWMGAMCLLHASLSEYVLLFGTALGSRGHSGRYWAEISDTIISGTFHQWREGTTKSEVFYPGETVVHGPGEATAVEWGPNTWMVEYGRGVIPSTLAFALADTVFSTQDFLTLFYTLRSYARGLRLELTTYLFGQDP", "settings": "Compound concentration 10.0 uM"}, "[33]": {"molecular_target": "Fibroblast growth factor receptor 1 (Homo sapiens) (UniProt P11362)", "test": "FGFR1 Invitrogen Lab (UK) kinase screen (BI)", "settings": "Compound concentration 1.0 uM"}, "[34]": {"molecular_target": "Cannabinoid receptor 1 (Homo sapiens) (UniProt P21554)", "test": "CB1(HU)_AGON Eurofins SafetyScreen44 (BI)", "settings": "filed as agonist, Compound concentration 10.0 uM"}, "[35]": {"molecular_target": "D(1A) dopamine receptor (Homo sapiens) (UniProt P21728)", "test": "D1/H Eurofins SafetyScreen44 (BI)", "settings": "filed as antagonist, Compound concentration 10.0 uM"}, "[36]": {"molecular_target": "Muscarinic acetylcholine receptor M2 (Homo sapiens) (UniProt P08172)", "settings": "Compound concentration 10.0 uM"}, "[37]": {"molecular_target": "Kappa-type opioid receptor (Homo sapiens) (UniProt P41145)", "test": "KAPPA(KOP)_HU Eurofins SafetyScreen44 (BI)", "settings": "Compound concentration 10.0 uM"}, "[38]": {"molecular_target": "Endothelin-1 receptor (Homo sapiens) (UniProt P25101)", "test": "ETA/H Eurofins SafetyScreen44 (BI)", "settings": "Compound concentration 10.0 uM"}, "[39]": {"molecular_target": "Alpha-2B adrenergic receptor (Homo sapiens) (UniProt P18089)", "sequence (P18089 whole entry)": "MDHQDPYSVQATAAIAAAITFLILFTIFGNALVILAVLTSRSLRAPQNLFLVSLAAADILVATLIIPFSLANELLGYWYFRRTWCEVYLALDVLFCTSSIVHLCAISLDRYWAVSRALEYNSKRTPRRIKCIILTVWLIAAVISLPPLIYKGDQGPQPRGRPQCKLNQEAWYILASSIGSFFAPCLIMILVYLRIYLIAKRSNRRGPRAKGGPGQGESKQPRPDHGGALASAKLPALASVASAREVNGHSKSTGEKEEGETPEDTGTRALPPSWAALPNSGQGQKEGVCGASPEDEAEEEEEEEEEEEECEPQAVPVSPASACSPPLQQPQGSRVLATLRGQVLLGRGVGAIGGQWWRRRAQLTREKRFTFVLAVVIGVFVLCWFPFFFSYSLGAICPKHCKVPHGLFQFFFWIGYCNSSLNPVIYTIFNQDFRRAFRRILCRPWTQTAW", "settings": "Compound concentration 10.0 uM"}, "[40]": {"molecular_target": "Phosphatidylinositol 4,5-bisphosphate 3-kinase catalytic subunit gamma isoform (Homo sapiens) (UniProt P48736)", "test": "PIK3CG Invitrogen Lab (UK) kinase screen (BI)", "settings": "Compound concentration 1.0 uM"}, "[41]": {"molecular_target": "T1, Muscarinic acetylcholine receptor M3", "test": "GPCRScan assay: inhibition of M3", "design": "radioligand conc. used [nm] 0.3 – 1.0, parental cells stable CHO"}}, "note": "Active and inactive are the calls of the source. The calls are words filed in the database; no cut-off is given here."}
{"smiles": "CNC(=O)COc1cc2cc(Nc3nc(N4CCC(C(=O)N(C)C)CC4)ncc3Cl)cc(OC)c2n(C)c1=O", "values": [{"measurement": "residual activity", "setting": "[1]", "value": 89, "unit": "%"}, {"measurement": "residual activity", "setting": "[2]", "value": 98, "unit": "%"}, {"measurement": "inhibition", "setting": "[3]", "value": 17.6, "unit": "%"}, {"measurement": "residual activity", "setting": "[4]", "value": 88, "unit": "%"}, {"measurement": "inhibition", "setting": "[5]", "value": 1.86, "unit": "%"}, {"measurement": "residual activity", "setting": "[6]", "value": 91, "unit": "%"}, {"measurement": "inhibition", "setting": "[7]", "value": 65.8, "unit": "%"}, {"measurement": "residual activity", "setting": "[8]", "value": 100, "unit": "%"}, {"measurement": "residual activity", "setting": "[9]", "value": 82, "unit": "%"}, {"measurement": "inhibition", "setting": "[10]", "value": 4.8, "unit": "%"}, {"measurement": "residual activity", "setting": "[11]", "value": 15, "unit": "%"}, {"measurement": "inhibition", "setting": "[12]", "value": 74.1, "unit": "%"}, {"measurement": "inhibition", "setting": "[13]", "value": 20.9, "unit": "%"}, {"measurement": "inhibition", "setting": "[14]", "value": 39.6, "unit": "%"}, {"measurement": "residual activity", "setting": "[15]", "value": 91, "unit": "%"}, {"measurement": "residual activity", "setting": "[16]", "value": 88, "unit": "%"}, {"measurement": "inhibition", "setting": "[17]", "value": 28.1, "unit": "%"}, {"measurement": "residual activity", "setting": "[18]", "value": 83, "unit": "%"}, {"measurement": "inhibition", "setting": "[19]", "value": -1.33, "unit": "%"}, {"measurement": "residual activity", "setting": "[20]", "value": 98, "unit": "%"}, {"measurement": "inhibition", "setting": "[21]", "value": 2.93, "unit": "%"}, {"measurement": "inhibition", "setting": "[22]", "value": 17.4, "unit": "%"}, {"measurement": "Kd", "setting": "[23]", "value": "0.00257 µM (active)"}, {"measurement": "activity at 10 µM", "setting": "hERG (KCNH2)", "value": "92% (not active)"}, {"measurement": "residual activity", "setting": "[24]", "value": 79, "unit": "%"}, {"measurement": "residual activity", "setting": "[25]", "value": 112, "unit": "%"}, {"measurement": "residual activity", "setting": "[26]", "value": 92, "unit": "%"}, {"measurement": "residual activity", "setting": "[27]", "value": 113, "unit": "%"}, {"measurement": "inhibition", "setting": "Rattus norvegicus", "value": 49.5, "unit": "%"}, {"measurement": "residual activity", "setting": "[28]", "value": 93, "unit": "%"}, {"measurement": "residual activity", "setting": "[29]", "value": 90, "unit": "%"}, {"measurement": "residual activity", "setting": "[30]", "value": 98, "unit": "%"}, {"measurement": "inhibition", "setting": "[31]", "value": 3.4, "unit": "%"}, {"measurement": "inhibition", "setting": "[32]", "value": 16.8, "unit": "%"}, {"measurement": "residual activity", "setting": "[33]", "value": 86, "unit": "%"}, {"measurement": "residual activity", "setting": "[34]", "value": 123, "unit": "%"}, {"measurement": "residual activity", "setting": "[35]", "value": 100, "unit": "%"}, {"measurement": "inhibition", "setting": "[36]", "value": 19.5, "unit": "%"}, {"measurement": "residual activity", "setting": "[37]", "value": 83, "unit": "%"}, {"measurement": "residual activity", "setting": "[38]", "value": 104, "unit": "%"}, {"measurement": "inhibition", "setting": "[39]", "value": 20.7, "unit": "%"}, {"measurement": "residual activity", "setting": "[40]", "value": 98, "unit": "%"}, {"measurement": "Ki", "setting": "[41]", "value": "> 10", "unit": "µM"}, {"measurement": "pKi", "setting": "[41]", "value": "< 5"}]}
